Results as given in patent publication US12442042B2, “Epigenomic profiling reveals the somatic promoter landscape of primary gastric adenocarcinoma” (AGENCY FOR SCIENCE, TECHNOLOGY AND RESEARCH, priority 2016, dated 2025).

System: IM95 GC cells
Test: EZH2 inhibition: RNA-seq of GSK126-treated IM95 cells at promoter loci
Type: cell-based, human
Experimental: IM95 were treated with GSK126 (Selleck, USA), a selective EZH2 inhibitor, at a concentration of 5 μM. Cell proliferation was monitored in 96-well plates post-treatment with GSK126 using the CellTiter-Glo® Luminescent Cell Viability Assay (Promega) for three independent experiments. For RNA-seq analysis, total RNA was extracted using the Qiagen RNAeasy mini kit according to manufacturer's instructions. Cells were treated with GSK126 (Selleck, USA; dissolved in DMSO) at a concentration of 5 μM. Control cells were treated with the same concentration of DMSO (0.1%). RNAseq differential analysis for promoter loci was carried out using edgeR on read counts mapping to H3K4me3 regions estimated using featureCounts. RNAseq gene level differential analysis was performed using cuffdiff2.2.1.

In the case of `CC[C@H](C)n1cc(C)c2c(C(=O)NCc3c(C)cc(C)[nH]c3=O)cc(-c3ccc(N4CCNCC4)nc3)cc21` [GSK126], the “deregulated promoters mapping to somatic promoters lost in primary GC that were reactivated” value (78/87, FC>=2, qval<0.1) is reported as 89.6%, the “gene sets of genes upregulated upon EZH2 inhibition” value (Day 6 and 9, RNA-seq) is reported as “enriched in previously identified PRC2 target gene sets” and the “OR, somatic promoters vs all GSK126 regulated genes” value (Fisher Test, P<0.001) is reported as 9.21. For the same compound, the “OR, somatic promoters vs unaltered promoters changing expression” value (Fisher Test, P<0.001) was 1.46, the “promoters deregulated in total” value (GSK126 5 μM, Day 6 and 9, RNA-seq) was 2134 and the “proportion of somatic promoters deregulated” value (GSK126 5 μM, RNA-seq) was 12.8%. For the same compound, the “proportion of unaltered promoters exhibiting deregulation” value (GSK126 5 μM, RNA-seq) was 8.8%, the “somatic promoters deregulated (of 1959 promoters exhibiting somatic alterations in primary GCs)” value (GSK126 5 μM, RNA-seq) was 251 and the “total proportion of genes (as defined by Gencode) regulated” value (GSK126 5 μM, RNA-seq) was 1.5%. For the same compound, the “expression at PSCA TSS (lost somatic promoter)” value (day 6 (D6) and Day 9 (D9)) was “Gain of expression”, the “expression at SLC9A9 TSS (lost somatic promoter)” value (day 6 (D6) and Day 9 (D9)) was “Gain of expression” and the “expression at alternative promoter ESRRG (lost promoter activity)” value (day 6 (D6) and Day 9 (D9)) was “Gain of expression”.
